What was measured:
VSC concentration = assay: in vitro Halimeter determination of VSC concentration in saliva fermentation; format: cell-based, halitosis subjects (saliva); details: compared with CK group, anaerobic cultivation 10 hours
Protocol: Fresh saliva was collected from 10 halitosis subjects (Halimeter index >120). Subjects were required not to consume any food or drink for 2 hours before donating saliva. Saliva was directly spat into a saliva collection tube, 5 ml per person, and mixed. The mixture was centrifuged at 4500 rpm for 10 minutes, and the supernatant was collected, aliquoted, and stored at -80°C for subsequent experimental studies.
(§1) Lysate observation group: In a 10 ml sample vial, 100 µl of saliva was added first, followed by the separate addition of ET-22 viable bacteria (1.0×10^9 CFU/ml), ET-22 heat-inactivated bacterial cells (obtained by inactivating viable bacteria at 1.0×10^9 CFU/ml), and lysate (obtained by inactivating and then filtering viable bacteria at 1.0×10^9 CFU/ml), each at 100µl. Then, 1.8 ml of SHI medium was added. After filling with nitrogen, anaerobic cultivation was performed for 10 hours. Then, the obtained culture was placed in a 60°C water bath for 30-min incubation. VSC concentration was measured using the in vitro Halimeter method.
(§2) Group of two nucleotides: In a 10 ml sample vial, 100 µl of saliva was added first, followed by the separate addition of ET-22 viable bacteria (1.0×10^9 CFU/ml), ET-22 heat-inactivated bacterial cells (obtained by inactivating viable bacteria at 1.0×10^9 CFU/ml), NAD, and FAD (500 µg/ml, 100 µg/ml, 10 µg/ml), each at 100µl. Then, 1.8 ml of SHI medium was added. After filling with nitrogen, anaerobic cultivation was performed for 10 hours. Then, the obtained culture was placed in a 60°C water bath for 30-min incubation. VSC concentration was measured using the in vitro Halimeter method.
as §2, with “five organic acids:” for “two nucleotides:”, “heat-inactivating” for “inactivating”, “CFU/ml),” for “CFU/ml), NAD,”, “five organic acid components” for “FAD”
as §2, with “Observation group” for “Group”, “four polypeptides:” for “two nucleotides:”, “heat-inactivating” for “inactivating”, “CFU/ml),” for “CFU/ml), NAD,”, “components of four polypeptides” for “FAD”
as §1, with “Peptidoglycan” for “Lysate observation”, “peptidoglycan (peptidoglycan extracted from” for “lysate (obtained by inactivating and then filtering”, “CFU/ml).” for “CFU/ml), each at 100µl.”, “method. […]” for “method.”

Solobacterium moorei = assay: in vitro oral biofilm model, sequencing: relative abundance; format: cell-based
Protocol: 100 µl of saliva was added to a 24-well plate, then 100 µl of the corresponding concentration solution was added respectively to the experimental groups, and finally 800 µl of SHI medium was added. The plate was placed in an anaerobic box and cultured anaerobically at 37°C for 10 hours. Then, the supernatant was discarded, and the multi-species biofilm adhered to the well plate was obtained. After discarding the supernatant from the incubated biofilm, the biofilm adhered to the bottom of the well plate was re-suspended with sterile water by pipetting, transferred to a 1.5 ml centrifuge tube, and stored until gene sequencing was performed.
Based on sequencing results, halitosis-causing pathogenic bacteria in the biofilm were identified. Four key halitosis-causing pathogenic bacteria were identified: Fusobacterium nucleatum, Streptococcus mutans, Prevotella intermedia, and Solobacterium moorei. All four bacteria had been proven to be positively correlated with VSC concentration. […] Therefore, this example adopts lysate, NAD, 2-hydroxy-3-phenylpropionic acid, and polypeptide GP(Hyp)GAG to intervene in halitosis-causing pathogenic bacteria in the biofilm, evaluating changes in the relative abundance of pathogenic bacteria after intervention. Additionally, Prevotella intermedia is a periodontal pathogen that can produce indole via the tryptophan metabolic pathway. […]

For `O=C(O)C(O)Cc1ccccc1` (stereo not shown) [2-hydroxy-3-phenylpropionic acid], the VSC concentration (VSC concentration; high concentration (500 µg/ml)) was “significantly lower than that in the control group”, the VSC concentration (VSC concentration; medium concentration (100 µg/ml)) was “significantly lower than that in the control group” and the “growth of Solobacterium moorei (relative abundance)” value (Solobacterium moorei; multi-species biofilm, 37°C 10 hours) was “significantly inhibit the growth”. For the same compound, the “inhibitory effect on Solobacterium moorei” value (Solobacterium moorei; relative to ET-22 viable bacteria or ET-22 heat-inactivated bacteria) was “better”.
